Literature values in patent publication US20030084473A1, “Non-transgenic herbicide resistant plants” (priority 2001, published 2003).

Target: wild-type EPSPS from E. coli (Escherichia coli, UniProt P0A6D3)
Conditions: read-out: apparent Km for PEP

Chain of wild-type EPSPS from E. coli (P0A6D3 whole entry): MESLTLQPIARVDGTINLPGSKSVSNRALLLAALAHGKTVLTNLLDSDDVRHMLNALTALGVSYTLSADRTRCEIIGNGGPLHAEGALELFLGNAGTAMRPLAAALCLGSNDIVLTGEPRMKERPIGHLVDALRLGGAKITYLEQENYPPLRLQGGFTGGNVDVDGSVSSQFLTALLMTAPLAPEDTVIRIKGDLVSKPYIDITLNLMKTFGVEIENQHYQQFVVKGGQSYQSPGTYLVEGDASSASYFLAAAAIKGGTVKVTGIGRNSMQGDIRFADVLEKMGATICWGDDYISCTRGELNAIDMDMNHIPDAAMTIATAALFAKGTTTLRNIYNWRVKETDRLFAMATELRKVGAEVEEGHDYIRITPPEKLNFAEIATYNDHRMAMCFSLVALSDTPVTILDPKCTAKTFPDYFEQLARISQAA

## C=C(OP(=O)(O)O)C(=O)O [PEP, phosphoenolpyruvic acid]
  Km: 10 µM
